Blank lines part the entries; values can stand above or below the substance they belong to.
Columns and labels:
[1] = biological target: ERK; details: read-out: KD (μM) ERK; docking motif peptide binding to ERK; cited from earlier work
[2] = biological target: p38; details: read-out: KD (μM) p38; docking motif peptide binding to p38; cited from earlier work
[3] = biological target: JNK; details: read-out: KD (μM) JNK; docking motif peptide binding to JNK; cited from earlier work
[4] = tested on: off target kinases; test: Kinase panel selectivity screen, JNK sensor, off target kinases; type: biochemical; details: 15 nM kinase, sensor at 2 × KM (3 μM), other MAP and non-MAP kinases
[5] = biological target: JNK1 (Homo sapiens, UniProt P45983); test: Recombinant kinase assay, kinetic parameters of sensor phosphorylation; type: biochemical
[6] = biological target: JNK3 (Homo sapiens, UniProt P53779); test: as above; type: biochemical
[7] = biological target: JNK2 (Homo sapiens, UniProt P45984); test: as above; type: biochemical
[8] = biological target: T1, p38α (Homo sapiens, UniProt Q16539); test: as above; type: biochemical
[9] = biological target: T2, p38β (Homo sapiens, UniProt Q15759); test: as above; type: biochemical
[10] = biological target: T2, p38β; test: Kinase panel selectivity screen, ERK sensor crosstalk with p38β; type: biochemical; details: 15 nM kinase, sensor at 2 × KM (2.5 μM)
[11] = biological target: ERK1 (Homo sapiens, UniProt P27361); test: Recombinant kinase assay, kinetic parameters of sensor phosphorylation; type: biochemical
[12] = biological target: T1, p38α; test: Kinase panel selectivity screen, ERK sensor crosstalk with p38α; type: biochemical; details: 15 nM kinase, sensor at 2 × KM (2.5 μM)
[13] = biological target: ERK2 (Homo sapiens, UniProt P28482); test: Recombinant kinase assay, kinetic parameters of sensor phosphorylation; type: biochemical
[14] = recombinant JNK1, 1 mM ATP, pH 7.4, 30 °C, Sox fluorescence
[15] = recombinant JNK3, 1 mM ATP, pH 7.4, 30 °C, Sox fluorescence
[16] = recombinant JNK2, 1 mM ATP, pH 7.4, 30 °C, Sox fluorescence
[17] = 1 mM ATP, pH 7.4, 30 °C, Sox fluorescence
[18] = recombinant ERK1, 1 mM ATP, pH 7.4, 30 °C, Sox fluorescence
[19] = recombinant ERK2, 1 mM ATP, pH 7.4, 30 °C, Sox fluorescence

T1 sequence (Q16539 whole entry): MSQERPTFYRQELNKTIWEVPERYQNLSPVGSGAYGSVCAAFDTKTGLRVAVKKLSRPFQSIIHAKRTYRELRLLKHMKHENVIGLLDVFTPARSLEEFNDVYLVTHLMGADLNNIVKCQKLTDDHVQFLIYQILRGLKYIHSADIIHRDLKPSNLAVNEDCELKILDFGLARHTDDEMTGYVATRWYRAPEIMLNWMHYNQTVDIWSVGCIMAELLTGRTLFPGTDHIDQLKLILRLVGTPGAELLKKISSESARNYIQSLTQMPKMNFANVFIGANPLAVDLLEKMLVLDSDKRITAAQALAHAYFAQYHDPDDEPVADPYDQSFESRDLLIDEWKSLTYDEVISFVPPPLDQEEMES
Sequence of ERK2 (P28482 whole entry): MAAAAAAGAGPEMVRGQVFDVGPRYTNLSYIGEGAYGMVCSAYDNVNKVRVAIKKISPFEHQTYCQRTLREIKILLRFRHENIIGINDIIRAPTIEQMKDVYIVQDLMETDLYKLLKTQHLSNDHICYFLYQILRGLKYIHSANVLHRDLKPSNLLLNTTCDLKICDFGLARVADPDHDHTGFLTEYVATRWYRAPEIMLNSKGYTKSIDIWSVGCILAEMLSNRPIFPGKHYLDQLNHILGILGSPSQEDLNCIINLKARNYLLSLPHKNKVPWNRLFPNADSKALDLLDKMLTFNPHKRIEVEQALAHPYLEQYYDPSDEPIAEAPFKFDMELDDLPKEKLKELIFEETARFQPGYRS
Sequence of JNK3 (P53779 whole entry): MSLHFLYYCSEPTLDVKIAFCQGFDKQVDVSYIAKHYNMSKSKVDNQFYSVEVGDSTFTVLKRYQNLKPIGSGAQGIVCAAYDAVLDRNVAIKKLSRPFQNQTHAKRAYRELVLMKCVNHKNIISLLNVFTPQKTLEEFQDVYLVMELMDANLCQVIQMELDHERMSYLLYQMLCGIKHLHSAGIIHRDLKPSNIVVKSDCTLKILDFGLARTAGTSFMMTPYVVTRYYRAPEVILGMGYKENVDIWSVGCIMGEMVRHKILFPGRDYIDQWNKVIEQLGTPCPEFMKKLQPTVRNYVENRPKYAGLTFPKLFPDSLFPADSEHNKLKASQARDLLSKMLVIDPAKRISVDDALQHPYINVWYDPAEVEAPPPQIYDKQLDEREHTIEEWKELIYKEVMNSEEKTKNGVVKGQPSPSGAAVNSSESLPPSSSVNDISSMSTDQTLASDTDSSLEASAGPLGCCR
T2 sequence (Q15759 whole entry): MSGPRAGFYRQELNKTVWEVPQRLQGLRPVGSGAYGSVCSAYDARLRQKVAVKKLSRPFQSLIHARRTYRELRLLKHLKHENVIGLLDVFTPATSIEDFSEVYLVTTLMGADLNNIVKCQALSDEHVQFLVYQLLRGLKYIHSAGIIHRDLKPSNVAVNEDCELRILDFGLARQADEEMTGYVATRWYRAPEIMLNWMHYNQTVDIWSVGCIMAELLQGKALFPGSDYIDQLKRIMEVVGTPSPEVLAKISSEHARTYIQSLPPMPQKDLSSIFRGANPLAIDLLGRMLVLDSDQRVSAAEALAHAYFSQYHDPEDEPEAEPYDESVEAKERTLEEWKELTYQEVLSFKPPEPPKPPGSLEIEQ
Sequence of ERK1 (P27361 whole entry): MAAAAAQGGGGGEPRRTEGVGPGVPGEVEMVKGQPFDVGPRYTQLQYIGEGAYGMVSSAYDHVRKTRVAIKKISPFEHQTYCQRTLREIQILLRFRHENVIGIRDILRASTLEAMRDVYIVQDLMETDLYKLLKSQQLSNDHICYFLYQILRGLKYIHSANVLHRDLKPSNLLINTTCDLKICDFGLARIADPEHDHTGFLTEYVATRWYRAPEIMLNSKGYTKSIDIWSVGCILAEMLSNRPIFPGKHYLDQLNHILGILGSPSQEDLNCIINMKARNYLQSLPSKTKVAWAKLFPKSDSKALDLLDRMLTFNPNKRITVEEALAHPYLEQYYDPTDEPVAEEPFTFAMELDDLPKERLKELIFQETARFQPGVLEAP
Sequence of JNK1 (P45983 whole entry): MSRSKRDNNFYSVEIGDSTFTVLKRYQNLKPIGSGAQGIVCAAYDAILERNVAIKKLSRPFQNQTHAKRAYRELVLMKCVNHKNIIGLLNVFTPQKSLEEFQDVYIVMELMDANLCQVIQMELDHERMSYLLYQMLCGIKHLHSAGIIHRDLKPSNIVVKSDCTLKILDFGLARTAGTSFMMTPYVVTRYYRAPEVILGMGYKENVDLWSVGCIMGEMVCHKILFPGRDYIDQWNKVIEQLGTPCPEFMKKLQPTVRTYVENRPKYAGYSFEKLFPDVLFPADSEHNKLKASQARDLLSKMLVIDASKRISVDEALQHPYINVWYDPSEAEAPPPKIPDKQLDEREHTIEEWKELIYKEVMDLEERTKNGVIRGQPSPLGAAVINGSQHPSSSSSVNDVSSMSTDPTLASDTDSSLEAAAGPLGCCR

Substance: ERPSRDHLYLPLEP [NFAT4]
Kd [1]: > 100 µM | Kd [2]: > 100 µM | Kd [3]: 7.1 µM

Substance: IKIKKIEDASNPLLLKRRKK [MK2]
Kd [1]: 19.5 µM | Kd [2]: 0.05 µM | Kd [3]: > 100 µM

Substance: PQLKPIESSILAQRRVRKL [RSK1]
Kd [3]: > 100 µM

The next lines start with the values.

activity observed for any of the off target kinases (percentage of the target kinase) [4]: ≤ 12.5% | catalytic efficiency (min^–1 μM^–1) ([5]; recombinant JNK1): 5.4 min^–1 μM^–1 | Vmax (μmol min^–1 mg^–1) [5, 14]: 0.38 ± 0.05 μmol min^–1 mg^–1 | kcat (min^–1) [5, 14]: 17.9 ± 2.2 min^–1 | catalytic efficiency (min^–1 μM^–1) ([6]; recombinant JNK3): 9.4 min^–1 μM^–1 | Vmax (μmol min^–1 mg^–1) [6, 15]: 0.35 ± 0.07 μmol min^–1 mg^–1 | kcat (min^–1) [6, 15]: 26.6 ± 5.6 min^–1 | catalytic efficiency (min^–1 μM^–1) ([7]; recombinant JNK2): 19.2 min^–1 μM^–1 | Vmax (μmol min^–1 mg^–1) [7, 16]: 0.37 ± 0.02 μmol min^–1 mg^–1 | kcat (min^–1) [7, 16]: 18.2 ± 1.3 min^–1
Substance: ERPSRDHLYLPLEP-PEG2-SANLLSP-Csox-PA [JNK1/2/3]

catalytic efficiency (min^–1 μM^–1) [8]: 298.7 min^–1 μM^–1 | Vmax (μmol min^–1 mg^–1) [8, 17]: 1.37 ± 0.08 μmol min^–1 mg^–1 | kcat (min^–1) [8, 17]: 92.6 ± 5.4 min^–1 | catalytic efficiency (min^–1 μM^–1) [9]: 282.9 min^–1 μM^–1 | Vmax (μmol min^–1 mg^–1) [9, 17]: 0.84 ± 0.13 μmol min^–1 mg^–1 | kcat (min^–1) [9, 17]: 39.6 ± 6.3 min^–1
Substance: GKKRRKLLLPNSADEIKKIKI-PEG2-Triazole-PEG2-QP-Csox-ASPVV [p38α/β]

crosstalk with p38β (percentage of the target kinase) [10]: 17% | catalytic efficiency (min^–1 μM^–1) ([11]; recombinant ERK1): 26.2 min^–1 μM^–1 | Vmax (μmol min^–1 mg^–1) [11, 18]: 0.42 ± 0.03 μmol min^–1 mg^–1 | kcat (min^–1) [11, 18]: 29.9 ± 2.0 min^–1 | crosstalk with p38α (percentage of the target kinase) [12]: 10% | catalytic efficiency (min^–1 μM^–1) ([13]; recombinant ERK2): 54.6 min^–1 μM^–1 | Vmax (μmol min^–1 mg^–1) [13, 19]: 0.90 ± 0.01 μmol min^–1 mg^–1 | kcat (min^–1) [13, 19]: 62.8 ± 0.7 min^–1
Substance: GLKRVRRQALISSEIPKLQP-PEG2-Triazole-PEG2-VP-Csox-LTPGGRR [ERK1/2]

From article PMC4165445 (Biochemistry, 2014)
